Test systems include 786-0; CAKI-1; COLO 205; HCT-15; Hs-578T; LOX IMVI; MDA-MB-231; MDA-MB-435; NCI/ADR-RES; RPMI-8226; SF-295; SK-OV-3; TK-10; UO-31; HOP-62; IGROV-1; MOLT-4; PC-3; RXF 393; SK-MEL-2.
Experiment in all cases: DTP human tumour cell line panel, 48 h

Structures are written as SMILES.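 The compound was tested at five concentrations on cells cultured in 96-well plates, with a 48-hour exposure period. GI50 = concentration required for 50% inhibition of growth.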 Activity calls are given as the source filed them. Cut-off read from the data, not from the text of the source: active = GI50 up to about 1.1 µM and inactive = higher. Where only a bound is given, the exact number is not on record here.

This note sets out measurements from ChEMBL document CHEMBL1201862, “PubChem BioAssay data set” (2004).

The GI50 is the concentration giving 50% growth inhibition.

Take `O=c1n(Cc2ccccc2)c(=O)n2c(=O)n(Cc3ccccc3)c(=O)n12`: the GI50 is > 100 µM (inactive) with 786-0; > 100 µM (inactive) in the experiment with CAKI-1; 38.3 µM (inactive) in the experiment with COLO 205; > 100 µM with HCT-15; > 100 µM (inactive) with Hs-578T; > 100 µM (inactive) in the experiment on LOX IMVI. The GI50 in the experiment with MDA-MB-231, in the experiment with MDA-MB-435, with NCI/ADR-RES, with RPMI-8226, in the experiment on SF-295 and in the experiment with SK-OV-3 was > 100 µM (inactive) each time. Further, the GI50 with TK-10 and with UO-31 was > 100 µM (inactive) in each case.
As to `COc1cc2c3c(n(C)c(=O)c2cc1OC)-c1cc2c(cc1/C3=C\CCCI)OCO2`, the GI50 is 5.32 µM (inactive) in the experiment with 786-0; 4.35 µM (inactive) in the experiment with CAKI-1; 18.1 µM (inactive) in the experiment on COLO 205; 2.56 µM in the experiment with HCT-15; 10 µM (inactive) in the experiment with HOP-62; 4.11 µM (inactive) in the experiment on Hs-578T. Moreover, the GI50 was 1.58 µM (inactive) with IGROV-1; 8.3 µM (inactive) in the experiment with LOX IMVI; 19.3 µM (inactive) in the experiment with MDA-MB-435; 0.238 µM (active) in the experiment on MOLT-4; 18.1 µM (inactive) in the experiment with NCI/ADR-RES; > 53.5 µM (inactive) in the experiment on PC-3. In addition, the GI50 with RPMI-8226 was 3.92 µM (inactive); in the experiment with RXF 393, 10.6 µM (inactive); in the experiment on SF-295, 0.904 µM (active); with SK-MEL-2 it was > 100 µM (inactive); in the experiment on SK-OV-3, 20.9 µM (inactive); in the experiment with TK-10 it was 0.649 µM (active). Further, the GI50 in the experiment on UO-31 was 0.653 µM (active).
Consider `O=C1c2ccccc2-c2nc(-c3ccncc3)cc3c2c1nc1ccccc13`, for which the GI50 with 786-0 was 11.1 µM (inactive); in the experiment with CAKI-1 it was > 100 µM (inactive); in the experiment on COLO 205, 22.3 µM (inactive); in the experiment on HCT-15, 19 µM; with HOP-62, 6.55 µM (inactive); with IGROV-1, 1.07 µM (active). The GI50 with LOX IMVI is 14.5 µM (inactive); in the experiment with MDA-MB-231, > 100 µM (inactive); in the experiment with MDA-MB-435 it was 16 µM (inactive); in the experiment with MOLT-4, 2.83 µM (inactive); in the experiment on NCI/ADR-RES, > 100 µM (inactive); in the experiment on PC-3, 13.3 µM (inactive). The GI50 is 11.4 µM (inactive) with RPMI-8226; 11.3 µM (inactive) in the experiment on SF-295; 11.3 µM (inactive) in the experiment with SK-MEL-2; > 100 µM (inactive) in the experiment on SK-OV-3; 33.2 µM (inactive) in the experiment with TK-10; 9.71 µM (inactive) in the experiment with UO-31.
Turning to `CN(C)C1(C(=O)O)CC1`, the GI50 in the experiment with 786-0 is > 100 µM (inactive); with HCT-15, > 100 µM; with HOP-62, > 100 µM (inactive); in the experiment on Hs-578T it was > 100 µM (inactive); in the experiment with IGROV-1, > 100 µM (inactive); with LOX IMVI it was > 100 µM (inactive). Also, the GI50 with MDA-MB-435, with MOLT-4, with NCI/ADR-RES, in the experiment on PC-3, in the experiment with RPMI-8226 and in the experiment on RXF 393 was > 100 µM (inactive) in each case. Moreover, the GI50 in the experiment on SF-295 and in the experiment with TK-10 was > 100 µM (inactive) throughout.
With `CCN(CC)C1CCC(C2c3cc4c(cc3OC(N3CCOCC3)C2C)OCO4)CC1` (stereo not drawn), the GI50 in the experiment on 786-0 was 33.7 µM (inactive); in the experiment on CAKI-1, > 100 µM (inactive); in the experiment on COLO 205, 7.98 µM (inactive); in the experiment with HCT-15 it was 12.1 µM; in the experiment with HOP-62 it was 18.3 µM (inactive); with Hs-578T it was 28.7 µM (inactive). Besides, the GI50 in the experiment on IGROV-1 was > 27.9 µM (inactive); in the experiment on LOX IMVI, 11.4 µM (inactive); in the experiment with MDA-MB-435, 6.81 µM (inactive); with MOLT-4, 10.1 µM (inactive); with NCI/ADR-RES it was 27 µM (inactive); in the experiment on PC-3 it was 10.4 µM (inactive). The GI50 was 15.5 µM (inactive) in the experiment with RPMI-8226; 10.7 µM (inactive) with RXF 393; 9.46 µM (inactive) in the experiment on SF-295; 5.62 µM (inactive) with SK-MEL-2; > 30.6 µM (inactive) with TK-10; 36.9 µM (inactive) in the experiment on UO-31.
Take `N#[N+]c1cc2c(cc1Br)-c1ccccc1C2`: the GI50 in the experiment on 786-0 is > 100 µM (inactive); in the experiment with CAKI-1 it was 97.5 µM (inactive); in the experiment with COLO 205, > 100 µM (inactive); with HCT-15, > 100 µM; in the experiment on HOP-62, > 100 µM (inactive); in the experiment with Hs-578T it was > 100 µM (inactive). Besides, the GI50 with IGROV-1 is 38.8 µM (inactive); in the experiment with LOX IMVI it was 91.6 µM (inactive); with MDA-MB-231, > 100 µM (inactive); with MDA-MB-435 it was 81.8 µM (inactive); in the experiment with MOLT-4, 10.3 µM (inactive); in the experiment on NCI/ADR-RES, > 100 µM (inactive). The GI50 is 78.3 µM (inactive) in the experiment on RXF 393; > 100 µM (inactive) in the experiment on SF-295; 83.9 µM (inactive) in the experiment with SK-MEL-2; > 100 µM (inactive) in the experiment with SK-OV-3; 47.1 µM (inactive) in the experiment on TK-10; > 100 µM (inactive) with UO-31.
As to `O=C1c2ccccc2C(=O)N1n1c(Cc2ccccc2)n[nH]c1=O`, the GI50 with 786-0 is > 100 µM (inactive); in the experiment on CAKI-1, > 100 µM (inactive); with COLO 205, > 100 µM (inactive); in the experiment on HCT-15, > 100 µM; with HOP-62, > 100 µM (inactive); with Hs-578T, > 100 µM (inactive). Further, the GI50 with IGROV-1, in the experiment on LOX IMVI, with MDA-MB-231, with MDA-MB-435, in the experiment with MOLT-4 and in the experiment on NCI/ADR-RES was > 100 µM (inactive) throughout. The GI50 in the experiment on PC-3, in the experiment on SF-295, in the experiment on SK-MEL-2, in the experiment on TK-10 and in the experiment with UO-31 was > 100 µM (inactive) in each case.
As to `c1ccc2c(Nc3ncco3)cccc2c1`, the GI50 with 786-0 is > 10 µM (inactive); with CAKI-1, > 10 µM (inactive); in the experiment on COLO 205, > 10 µM (inactive); in the experiment on HCT-15 it was > 10 µM; in the experiment with HOP-62 it was > 10 µM (inactive); with Hs-578T, > 10 µM (inactive). Further, the GI50 with IGROV-1, in the experiment on LOX IMVI, with MDA-MB-231, with MDA-MB-435, in the experiment on MOLT-4 and in the experiment with NCI/ADR-RES was > 10 µM (inactive) each time. In addition, the GI50 in the experiment with PC-3, with SF-295, in the experiment on SK-OV-3, in the experiment with TK-10 and with UO-31 was > 10 µM (inactive) throughout.
On to `CC(=O)O[C@H]1CC[C@@]2(C)C(=C[C@H](c3ccc(O)cc3)[C@H]3[C@@H]4CC[C@H](OC(C)=O)[C@@]4(C)CC[C@@H]32)C1`, for which the GI50 in the experiment on 786-0 was 19.6 µM (inactive); with CAKI-1, 18.6 µM (inactive); in the experiment on COLO 205, 19.2 µM (inactive); in the experiment with HCT-15 it was 12.3 µM; with HOP-62 it was 19.1 µM (inactive); with LOX IMVI it was 14.1 µM (inactive). The GI50 with MDA-MB-231 was 17.9 µM (inactive); with MDA-MB-435, 25.2 µM (inactive); with MOLT-4, 18.4 µM (inactive); in the experiment on NCI/ADR-RES, 13.5 µM (inactive); in the experiment with PC-3, 14.3 µM (inactive); with RPMI-8226, 14 µM (inactive). Also, the GI50 with RXF 393 is 22.5 µM (inactive); with SF-295, 29 µM (inactive); in the experiment with SK-MEL-2 it was 20.2 µM (inactive); with SK-OV-3 it was > 100 µM (inactive); in the experiment on TK-10, 32.3 µM (inactive); with UO-31, 25.2 µM (inactive).
Consider `CP1(=O)CCCCC1`, for which the GI50 was > 100 µM (inactive) in the experiment with 786-0; > 100 µM (inactive) with CAKI-1; > 100 µM (inactive) in the experiment with COLO 205; > 100 µM in the experiment on HCT-15; > 100 µM (inactive) with HOP-62; > 100 µM (inactive) with IGROV-1. The GI50 with LOX IMVI, with MOLT-4, in the experiment with RPMI-8226, in the experiment with RXF 393, with SF-295 and with SK-MEL-2 was > 100 µM (inactive) throughout. Also, the GI50 with SK-OV-3, with TK-10 and with UO-31 was > 100 µM (inactive) in each case.
Turning to `Cc1c2ccccc2c(C)n2c1nc1ccccc12`, the GI50 was 4.68 µM (inactive) in the experiment on 786-0; 4.54 µM in the experiment on HCT-15; 10 µM (inactive) with HOP-62; 20.2 µM (inactive) in the experiment with Hs-578T; 11.6 µM (inactive) with IGROV-1; 6.1 µM (inactive) in the experiment with MDA-MB-435. Besides, the GI50 was 2.9 µM (inactive) in the experiment on MOLT-4; 8.57 µM (inactive) in the experiment on NCI/ADR-RES; 6.98 µM (inactive) in the experiment with PC-3; 7.16 µM (inactive) with RPMI-8226; 9.44 µM (inactive) in the experiment with RXF 393; 4.93 µM (inactive) with SF-295. The GI50 in the experiment with SK-OV-3 was 5.96 µM (inactive); with TK-10 it was 13.4 µM (inactive); in the experiment with UO-31, 5.35 µM (inactive).
For the compound `CC1C(O)=C(O)c2ccccc2N1O` (stereo not drawn), the GI50 in the experiment on 786-0 was > 100 µM (inactive); with CAKI-1, > 100 µM (inactive); in the experiment on COLO 205 it was > 100 µM (inactive); with HCT-15 it was 96.6 µM; in the experiment on HOP-62, 73.3 µM (inactive); in the experiment on IGROV-1, > 100 µM (inactive). The GI50 with LOX IMVI is 82.2 µM (inactive); with MOLT-4, 77.6 µM (inactive); with RPMI-8226, 80.4 µM (inactive); with RXF 393, 60.4 µM (inactive); in the experiment on SF-295, > 100 µM (inactive); in the experiment with SK-MEL-2 it was > 100 µM (inactive). Besides, the GI50 with SK-OV-3, with TK-10 and in the experiment on UO-31 was > 100 µM (inactive) throughout.
